For this assay, the system named is CEM cells HIV-1 protection, formazan growth assay. The experiment in a line: NCI AIDS Antiviral Assay. The following applies: for IC50: measured here: growth of uninfected CEM cells. The essentials: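 Human CEM cells, uninfected and HIV-1-infected, received five drug concentrations, and growth was read by soluble formazan assay. Compounds giving at least 50% protection were retested; reproducible 100% protection defined confirmed active.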

From PubChem BioAssay AID179 (DTP/NCI, 2004) come the findings set out here.

Calls of active or inactive are those of the source.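 Rule for the calls: active = compounds giving half or more protection of infected cells from virus-caused growth loss, again on retest; inactive = the rest.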 Some results are limits rather than exact numbers.

As for `O=C1C=C2CC3=CC(=O)C=C(CC4=CC(=O)C=C(CC5=CC(=O)C=C(CC(=C1)C2=O)C5=O)C4=O)C3=O`, the EC50 is > 53.7 µM and the half-maximal inhibitory concentration (IC50) came out at 0.912 µM.

As to `CC(NP(=O)(c1ccccc1)c1ccccc1)c1ccccc1` (stereo unspecified), the EC50 is > 200 µM and the IC50 was > 200 µM.

On to `CCOC(=O)C1=C(Nc2ccc(Cl)cc2Cl)OCC1=O`, for which the result was inactive.

With `CCOC(=O)c1ccc(CSc2ccccc2C(=O)O)c([N+](=O)[O-])c1`, the EC50 is > 14.5 µM and the 50% inhibitory concentration (IC50) is > 14.5 µM.

As to `CCCCCCCCCCCCCCCCC(C(=O)O)S(=O)(=O)O` (stereo unspecified), the EC50 was > 200 µM and the IC50 worked out at 112 µM.

`CC(=O)O[C@H]1CCC2[C@@H]3CCC4Nc5c(cnn5-c5ccccc5)C[C@]4(C)C3CC[C@@]21C` (stereo partly specified): the result was inactive.

For `CC(CO)(CO)N1C(=O)C2C3c4ccccc4C(c4ccccc43)C2C1=O` (stereo unspecified), the EC50 was > 200 µM and the concentration for half-maximal inhibition (IC50) was > 200 µM.

`C=C1CC23CC4C5C6(C)CC(O)CC57C(C2C(O)C1C(O)C37)N4C6` (stereo unspecified): the result was inactive.

Regarding `Cc1cc(=O)[nH]c(CNC(=O)c2cccc3ccccc23)n1`, the EC50 is > 851 µM and the IC50 was > 851 µM.

Turning to `O=S(=O)(O)CS(=O)(=O)O`, the EC50 is > 200 µM and the IC50 is > 200 µM.

As to `NC(=O)c1csc(C2OC(COP(=O)(O)CP(=O)(O)OCC3OC(n4cnc5c(N)ncnc54)C(O)C3O)C(O)C2O)n1` (stereo unspecified), the EC50 is > 151 µM and the IC50 worked out at 91.2 µM.

As for `CC1(C)C(OC(=O)c2ccccc2)C[C@]23CCC[C@](C)(C[C@@H](O)C12)C3` (stereo partly specified), the EC50 is > 200 µM and the 50% inhibitory concentration (IC50) worked out at 24 µM.

`C=CCNC(=S)NNC(=S)NCC=C`: the EC50 is > 200 µM and the concentration for half-maximal inhibition (IC50) is 23.4 µM.

Take `O=C1OCC=C1COC1OC(CO)C(O)C(O)C1O` (stereo unspecified): the EC50 is > 200 µM and the 50% inhibitory concentration (IC50) was 77.6 µM.

In the case of `O=CC[C@@]12CC(=O)OC(C1)[C@@H](I)CC21OCCO1`, the EC50 is > 200 µM and the 50% inhibitory concentration (IC50) is > 200 µM.

On to `O=C(CC1C(=O)Nc2ccccc2S1=O)Nc1cc(Cl)ccc1Cl` (stereo unspecified), for which the EC50 was > 3.8 µM and the 50% inhibitory concentration (IC50) is > 3.8 µM.

As to `COc1cc(/C=C2\SC(=S)N(C=C3C(=O)NC(=O)NC3=O)C2=O)cc(OC)c1OC`, the EC50 was > 200 µM and the IC50 worked out at 23.4 µM.

As to `CCCCCC(/C=N/N)C(O)(C(F)(F)F)C(F)(F)F` (stereo unspecified), the EC50 was > 200 µM and the half-inhibitory concentration (IC50) worked out at 1.48 µM.

With `C=CC(C)(C)n1cc(C2=C3OC(=O)C(c4cn(C(C)(C)C=C)c5ccccc45)=C3OC2=O)c2ccccc21`, the EC50 was > 200 µM and the concentration for half-maximal inhibition (IC50) was > 200 µM.

Take `CC(=O)OC1C(OCc2cc(=O)oc3c4c(c5c(c23)OC(C)(C)CC5)O[C@@H](C)[C@H](C)[C@@H]4O)OC(CO)C(O)C1O` (stereo partly specified): the EC50 is > 200 µM and the IC50 is 43.7 µM.

As for `NC(=O)C(=CNC(=S)c1cccnc1)C(N)=O`, the EC50 was > 200 µM and the IC50 came out at 74.1 µM.

With `NC(=O)NC1C(c2ccccc2)=NOC1C(N)=O` (stereo unspecified), the EC50 is > 200 µM and the concentration for half-maximal inhibition (IC50) was > 200 µM.

Consider `COc1cc2cnc3c4cc(OC(C)C)c(OC)cc4ccc3c2cc1OC`, for which the outcome was inactive.

`O=C(O)c1cc(Sc2ccc([N+](=O)[O-])c(C(=O)O)c2)ccc1[N+](=O)[O-]`: the EC50 is > 200 µM and the IC50 was > 200 µM.

For `C[N+]1(C)CC2C3C=CC(C3)C2C1` (stereo unspecified), the EC50 was > 309 µM and the IC50 is > 309 µM.

In the case of `COc1ccc2ccc3c(CCN(C)C#N)cc4c(c3c2c1OC(C)=O)OCO4`, the EC50 is > 34.7 µM and the IC50 is > 34.7 µM.

Regarding `O=S(=O)(SCCCCSS(=O)(=O)c1ccc(Cl)cc1)c1ccc(Cl)cc1`, the EC50 was 8.13 µM and the IC50 came out at 9.55 µM.

For the molecule `c1ccc2[nH]c3[nH]c4[nH]c5ccccc5[nH]c4[nH]c3[nH]c2c1`, the EC50 was > 50.1 µM and the IC50 is > 50.1 µM.

On to `Cc1cc(Cl)ccc1NC(=O)CCCC(=O)C1C/C(=N/O)CC/C1=N\O` (stereo unspecified), for which the EC50 was > 95.5 µM and the concentration for half-maximal inhibition (IC50) was > 95.5 µM.

For `[O-][n+]1nc2ccccc2c2ccccc21`, the EC50 was > 347 µM and the half-maximal inhibitory concentration (IC50) is 141 µM.

On to `N=c1ncn(Cc2ccccc2)c2nc[nH]c12`, for which the EC50 was > 200 µM and the 50% inhibitory concentration (IC50) was > 200 µM.

`CCOC(=O)c1c(N)sc(C)c1C`: the EC50 is > 200 µM and the concentration for half-maximal inhibition (IC50) is 117 µM.

For `Cc1c2ccccc2nc(CS(=O)(=O)CCO)[n+]1[O-]`, the EC50 was > 200 µM and the half-maximal inhibitory concentration (IC50) is > 200 µM.

For the molecule `c1ccc2c(c1)[nH]c1scc[n+]12`, the outcome was inactive.

With `CC1C2CC(CC23OCC(CCl)O3)C1(C)C` (stereo unspecified), the EC50 is > 200 µM and the IC50 is > 200 µM.

For the molecule `CC(C)(C)c1nc2c(o1)C(=Nc1ccccc1)c1ccccc1C2=O`, the outcome was inactive.

For the molecule `COC(=O)C(C#N)=C1c2ccccc2Oc2ccccc21`, the EC50 was > 129 µM and the IC50 worked out at 66.1 µM.

Regarding `CSC1=C(C(=O)N(COCC[Si](C)(C)C)c2ccccc2Br)CCC(C(C)(C)C)C1` (stereo unspecified), the EC50 is > 200 µM and the concentration for half-maximal inhibition (IC50) came out at 17.8 µM.

Turning to `O=C1CC(=O)NC(=NN2C(=O)CSC2c2ccccc2)N1` (stereo unspecified), the EC50 is > 200 µM and the half-maximal inhibitory concentration (IC50) is > 200 µM.

Take `CCC(C#N)NC(=O)NC(C#N)CC` (stereo unspecified): the EC50 was > 200 µM and the half-maximal inhibitory concentration (IC50) worked out at 107 µM.

For `O=C1C(=O)c2ccccc2C(O)=C1C(CCc1ccccc1)C1=C(O)c2ccccc2C(=O)C1=O`, the EC50 was > 200 µM and the IC50 came out at 55 µM.

As for `CSCCCSC1CCCCCCCCCCC1=O` (stereo unspecified), the EC50 is > 200 µM and the IC50 was > 200 µM.

As for `C/C(=N\NC(=S)N/N=C(\C)c1ccccn1)c1ccccn1`, the EC50 was > 200 µM and the IC50 is 1.32 µM.

Take `O=C1[C@H]2ON(c3ccccc3)C(c3ccco3)[C@H]2C(=O)N1c1ccc(Cc2ccc(N3C(=O)[C@@H]4ON(c5ccccc5)C(c5ccco5)[C@@H]4C3=O)cc2)cc1` (stereo partly specified): the EC50 was > 7.08 µM and the half-maximal inhibitory concentration (IC50) is > 7.08 µM.

For `NCCCCC(=O)NC(CCCCNC(=O)OCc1ccccc1)C(=O)NCCCCC(=O)NC(CCCCNC(=O)OCc1ccccc1)C(=O)NCCCCC(=O)NC(CCCCNC(=O)OCc1ccccc1)C(=O)NCCCCC(=O)NC(CCCCNC(=O)OCc1ccccc1)C(=O)NCCCCC(=O)NC(CCCCNC(=O)OCc1ccccc1)C(=O)NCCCCC(=O)NC(CCCCNC(=O)OCc1ccccc1)C(=O)NCCCCC(=O)NC(CCCCNC(=O)OCc1ccccc1)C(=O)O` (stereo unspecified), the EC50 was > 7.08 µM and the IC50 was > 7.08 µM.

As to `ClC1OC(Cl)(Cl)C(Cl)(Cl)OC1(Cl)Cl` (stereo unspecified), the result was inactive.

In the case of `COC(=O)C(Cc1cc(OC)c(OC)c(OC)c1)C(=O)OC`, the EC50 is > 302 µM and the IC50 is > 302 µM.

As for `COC(=O)c1c2c(cc3c1CC1(C3)Cc3cc4c(c(C(=O)OC)c3C1)CCCC4)CCCC2`, the EC50 is > 200 µM and the IC50 was > 200 µM.

For `O=S(=O)(Nc1nnc2ccc3ccccc3n12)c1ccc(Cl)cc1S`, the EC50 was > 200 µM and the half-maximal inhibitory concentration (IC50) was 105 µM.

Take `CCN1C(=O)CCCCC(=O)Nc2ccccc2-c2ccccc21`: the result was inactive.

Consider `O=S1(=O)CC2(N3CCCCC3)CCCCC21` (stereo unspecified), for which the EC50 was > 891 µM and the IC50 stood at 219 µM.

As for `CCCCCCc1nn2c(-c3ccncc3)nnc2s1`, the EC50 was > 100 µM and the concentration for half-maximal inhibition (IC50) turned out to be 52.5 µM.

On to `O=c1[nH]ncc2c1ncn2C1CCC(CO)O1` (stereo unspecified), for which the EC50 was 195 µM and the IC50 was > 200 µM.

In the case of `O=[N+]([O-])/C(C(Cl)=C(Cl)Cl)=C1\NCCS1`, the EC50 is > 200 µM and the concentration for half-maximal inhibition (IC50) was > 100 µM.

Consider `Nc1nc2ncc(CNc3ccc(C(=O)NC(CCC(=O)NC(CCC(=O)NC(CCC(=O)NC(CCC(=O)NC(CCC(=O)O)C(=O)O)C(=O)O)C(=O)O)C(=O)O)C(=O)O)cc3)nc2c(=O)[nH]1` (stereo unspecified), for which the EC50 was > 100 µM and the 50% inhibitory concentration (IC50) is > 100 µM.

For `CN1C(=O)C(Br)SC1=S` (stereo unspecified), the EC50 is > 31.6 µM and the half-inhibitory concentration (IC50) was > 31.6 µM.

Regarding `CCCC[N+](CCCC)=c1cc(-c2ccc(Cl)cc2)ss1`, the EC50 was > 20 µM and the IC50 turned out to be 0.708 µM.

In the case of `C/C(=N/OCCC(=O)O)C1CC1`, the EC50 is > 1450 µM and the IC50 is > 1450 µM.

On to `O=C(NC1CCCC1=O)c1ccccc1` (stereo unspecified), for which the result was inactive.

With `COc1ccc2ccccc2c1C1OC(=O)c2ccccc21` (stereo unspecified), the EC50 is > 46.8 µM and the IC50 came to 28.8 µM.

In the case of `COC(=O)NC1(NC(=O)OC)NC(=O)c2cc(OC)c(OC)c(OC)c2N1`, the EC50 was > 200 µM and the concentration for half-maximal inhibition (IC50) amounted to 10 µM.

On to `CCN(CC)CCNc1ccc([N+](=O)[O-])c2nc3ccc(OC)cc3c(NCCN(CC)CC)c12`, for which the EC50 was > 100 µM and the 50% inhibitory concentration (IC50) was found to be 0.178 µM.

Take `CN1C(=O)N(C)C(=O)C(Nc2ccc([N+](=O)[O-])cc2)(SCCO)C1=O`: the EC50 is 97.7 µM and the half-inhibitory concentration (IC50) amounted to 363 µM.

In the case of `CCCC1OC(=O)c2ccccc2S1` (stereo unspecified), the EC50 was > 200 µM and the 50% inhibitory concentration (IC50) was > 200 µM.

Regarding `N#Cc1c(N)c2c(c(-c3ccccc3)c1-c1ccccc1)C(=O)N(NC(=S)Nc1ccccc1)C2=O`, the EC50 was > 58.9 µM and the IC50 is 47.9 µM.

`CC1(C)CNC[C@](C)(OCCOC(c2ccccc2)(c2ccccc2)c2ccccc2)C(=O)NC(C)(C)CNC[C@@](C)(OCCOC(c2ccccc2)(c2ccccc2)c2ccccc2)C(=O)N1`: the EC50 was > 200 µM and the concentration for half-maximal inhibition (IC50) is > 200 µM.

As for `CCCCCCCCCN=C(N)CSSCC(N)=NCCCCCCCCC`, the EC50 was > 200 µM and the IC50 was 19.5 µM.

Regarding `COC(=O)[C@@H](Cc1ccccc1)N1O[C@]12CCCC[C@@H]2NC(=O)OC(C)(C)C` (stereo partly specified), the EC50 was > 200 µM and the IC50 is 32.4 µM.

Take `COC(=O)C(/C(=N\O)C(=O)Nc1cccc(Cl)c1C)c1cnc2ccccc2n1` (stereo unspecified): the EC50 is > 17.4 µM and the IC50 is > 17.4 µM.

Consider `Cc1ccc(-c2c(C#N)c(-c3ccc(Cl)cc3)c(C#N)c(=O)n2NS(=O)(=O)c2ccc(C)cc2)cc1`, for which the EC50 is > 200 µM and the IC50 was found to be 20.9 µM.

As a reminder, the EC50 is the concentration giving half of the maximal effect. What is called IC50 is the point on the concentration scale where inhibition reaches its midpoint.
